Assay: sequential release of drugs from core-shell nano-disordered electrospun fiber structure
Type: physicochemical
Conditions: composite electrospun layer of Example 1; roxithromycin in shell layer fiber, human epidermal growth factor in core layer fiber
Source text: Moreover, the transmission electron microscopic image of the core-shell nano-disordered electrospun fiber structure in the composite electrospun layer prepared in Example 1 is shown in FIG. 3. […] The coaxial electrospinning realizes the sequential and timed release of the two drugs in the same electrospun layer. Further, the electrospun layer can be prepared by triaxial electrospinning or multiaxial electrospinning process, which has a core-shell structure of three core layers or multi-core layers, thereby achieving the sequential and timed release of three or more drugs in the same electrospun layer.

order of drug release from core-shell fiber: released in advance
SMILES: CC[C@H]1OC(=O)[C@H](C)[C@@H](O[C@H]2C[C@@](C)(OC)[C@@H](O)[C@H](C)O2)[C@H](C)[C@@H](O[C@@H]2O[C@H](C)C[C@H](N(C)C)[C@H]2O)[C@](C)(O)C[C@@H](C)/C(=N\OCOCCOC)[C@H](C)[C@@H](O)[C@]1(C)O [roxithromycin]

Source: patent US20250134683A1, “MICRO-NANO MEDICAL STENT FOR DIRECTIONAL, QUANTITATIVE AND TIMED RELEASE OF DRUG AND PREPARATION METHOD THEREOF” (GUANGDONG UNIVERSITY OF TECHNOLOGY, priority 2023, published 2025)
